One series concerns PLS3. Kind of series: PLS3 threonine phosphorylation (Ni bead pulldown, Western blot). The following applies: HeLa cells with His-tagged PLS3; AD 198 for 0, 2, 4, 6 h. The series is classed as cell-based. The method, then:
Cell Culture, Transfection, and Treatment: HeLa cells were cultured in Dulbecco's modified Eagle's medium (DMEM) containing 10% fetal bovine serum, 2 mM […] and penicillin (100 units/mL)-streptomycin (100 μg/mL) at 37° C. in a humidified 5% CO2 atmosphere. HeLa cells at 90% confluence were transfected with different mammalian expression vectors using LIPOFECTAMIN™ 2000 transfection reagent according to the manufacturer's protocol (Invitrogen Corporation, Carlsbad, Calif., United States of America). […] For down-regulation of PLS3, HeLa cells at 50% confluence were transfected with siRNA against PLS3 or a scrambled control. […] The whole cell lysate was extracted for analysis with Western blotting.
Purification of His-tagged Proteins from Transfected HeLa Cells: After washing with ice-cold PBS, HeLa cells transfected with the pCMV-PLS3 or PLS3(T21A) vector were incubated in lysis buffer (50 mM NaH2PO4, 500 mM NaCl, 20 mM imidazole, 1% Triton X-100, 20 mM 2-mercaptoethanol, pH 8.0) for 5 min and sonicated briefly on ice. The lysates were centrifuged at 10,000×g for 10 min at 4° C. […] Protein concentrations of the supernatants were measured with the Bio-Rad protein assay (Bio-Rad Laboratories, Hercules, Calif., United States of America) and each sample was adjusted to the same concentration. […] After washing, the beads were resuspended in SDS buffer and analyzed by Western blotting. […]

The conditions of series [1]: in vivo; for Affected Hearts (%) / MTS: female, CD1, mouse, iv, 7 weeks.
For series [2], the system named is neonatal rat ventricular myocytes (NRVM). Briefly: Mitochondrial redox activity (MTT) in anti-erbB-2 antibody treated NRVM. The conditions noted are these: 200 nM drug 1 hr prior to anti-erbB-2 antibody.
A further series has as its system PKCs-α and -β. Kind of series: PKC translocation immunoblot in K562 cells. The following applies: 3 μM AD 198.
A further series deals with C57 mouse hearts. Kind of series: Langendorff perfused heart, global ischemia/reperfusion. The conditions noted are these: 0.1 μM. The method, then:
Perfusion studies were performed as described previously. See Pyle et al., Am. J. Physiol. Heart Circ. Physiol., 279, H1941-1948 (2000). Briefly, hearts were removed from methoxyflurane-anesthetized adult female Wistar rats, female C57 mice or progeny of C57B1/6J×129SvJae F1 heterozygous mice (provided by Dr. Robert O. Messing, University of California, San Francisco, Calif., United States of America; see also Jin, Z. Q. et al., Am. J. Physiol. Heart, Circ. Physiol., 282, H1970-1977 (2002)) bred to produce homozygous PKC-ε^−/−. Isolated hearts were cannulated in ice-cold modified Krebs-Henseleit buffer (4.7 mM KCl, 118 mM NaCl, 1.2 mM MgSO4, 1.3 mM CaCl2, 25 mM NaHCO3, 11 mM glucose, 1.2 mM KH2PO4, 0.05 mM EDTA, 2 mM lactic acid, pH 7.4) and then mounted on a Langendorff perfusion apparatus.
While mounted, hearts were placed in a 100 mL bath of oxygenated (95% O2/5% CO2), 37° C. modified Krebs-Henseleit buffer and perfused with the same at a pressure equal to 100 cm H2O. […] Pre-ischemic LVDP was calculated as the pressure difference between peak systolic pressure and EDP.
Baseline perfusion or drug perfusion in Modified Krebs-Henseleit buffer was carried out for 20 min followed by a 2-5 min washout of the perfused heart with Modified Krebs-Henseleit buffer plus vehicle. […] Post-ischemic LVDP was determined by averaging the last 10 min of post-ischemic reperfusion. […]

The test system of another series is PKC-δ. Briefly: PKC translocation immunoblot in primary cardiomyocytes. The series is classed as cell-based, rat. The following applies: 0.1 μM, within 5 min. The text has this:
(§1) FIG. 22 is an immunoblot analysis of PKC translocation in drug-treated rat cardiomyocytes. […] Total membrane fractions were isolated by differential centrifugation in the absence of non-ionic detergent, subjected to SDS-PAGE and prepared for immunoblot analysis using antibodies against the PKC isoforms.
On the technique in general: Immunoblotting shows a protein as a band on a membrane.

The next series deals with PKC-α. The series is described as above. The series is classed as cell-based, rat. The following applies: 0.1 μM, 5 min.
From the text: as §1

The next series deals with PKC-ε. The description is as above. The format is cell-based, rat. The conditions noted are these: 0.1 μM.
From the text: as §1

We go through one compound from US7541342B2, “Use of PKC-activating compounds as cardioprotectants and as apoptosis-inducing anti-tumor agents” (University of Tennessee Research Foundation, priority 2005, dated 2009).

Like-named read-outs stand apart in the source and are kept apart here.

Regarding `CCCCC(=O)OCC(=O)[C@]1(O)Cc2c(O)c3c(c(O)c2[C@@H](O[C@H]2C[C@H](NCc4ccccc4)[C@H](O)[C@H](C)O2)C1)C(=O)c1c(OC)cccc1C3=O` [AD 198, N-benzyladriamycin-14-valerate], in the series on PLS3, the “threonine phosphorylation of PLS3” value is listed as “steadily increased”. Besides, in series [1] (2.3 mg/kg), the “Affected Hearts (%)” value stood at 20% and the MTS came to 0.1. In series [1] (4.6 mg/kg), the “Affected Hearts (%)” value is given as 40% and the MTS came to 0.3. In series [1] (9.2 mg/kg), the “Affected Hearts (%)” value is 20% and the MTS stood at 0.1. Besides, the “cardiotoxicity at chronic dosing levels sufficient for DOX-induced cardiotoxicity” value in series [1] (mouse) was “non-cardiotoxic”. In addition, the “protection from anti-erbB-2-mediated depletion of redox activity (MTT)” value in series [2] was “protected”. Also, the “translocation of PKCs-α and -β to membrane fractions” value in the series with PKCs-α and -β is “not translocated”. Further, in the series on C57 mouse hearts, the “Mean LVDP ± std. Error, Post-Ischemic” value was found to be 41.0 ± 5.9 mm Hg and the “Mean LVDP ± std. Error, Pre-Ischemic” value amounted to 69.8 ± 13.6 mm Hg. The “translocation of PKC-δ” value in the series with PKC-δ is “Marginal translocation”. Besides, the “translocation of PKC-α” value in the series with PKC-α is recorded as “no translocation”. Besides, the “increase in membrane-associated PKC-ε versus DMSO” value in the series on PKC-ε (5 min exposure) was determined as 5 fold. For the same compound, in the series with PKC-ε (after 30 min), the “decrease of membrane-associated PKC-ε” value is given as “approximately 50%”.
